The test system of data set [1] is MDA-MB-231-pcDNA breast adenocarcinoma cells. Kind of data set: RRA cytotoxicity, MDA-MB-231-pcDNA. As to conditions: Homo sapiens, 72 h.
Experimental: (§2) The sources of the HepG2 hepatocarcinoma [27], U87MG glioblastoma cells and its resistant epidermal growth factor receptor (EGFR) transfected subline, U87MG.ΔEGFR [28], HCT116 p53^+/+ colon adenocarcinoma cells and its resistant knock-out congener, HCT116 p53^−/− [29], MDA-MB-231-pcDNA3 breast adenocarcinoma cells and its multidrug-resistant breast cancer resistance protein (BCRP)-transfected MDA-MB-231-BCRP clone 23 subline [30] have also been described. To compare the activity of samples in HepG2 cells, the AML12 hepatocytes were used [31]. […] These culture media were used as complete media with additional 10% fetal bovine serum and 1% penicillin/streptomycin (Invitrogen, Eggenstein, Germany).
(§3) Botanicals were tested in the concentration range of 0.63–80 µg/mL, the isolated compounds at 0.78—100 µM; the treated cells were incubated for 72 h; the fluorescence was measured at the excitation wavelength of 544 nm and at the emission wavelengths of 590 nm using Infinite M2000 Pro™ plate reader (Tecan, Crailsheim, Germany).
Another data set concerns MDA-MB-231-BCRP cells. Kind of data set: RRA cytotoxicity, MDA-MB-231-BCRP. Particulars: for IC50: Homo sapiens, MDA-MB-231/BCRP, 72 h; for Degree of resistance: IC50 MDA-MB-231-BCRP versus MDA-MB-231-pcDNA.
In data set [2] the test system is HepG2 hepatocarcinoma cells. Kind of data set: RRA cytotoxicity, HepG2. Particulars: Homo sapiens, HepG2, 72 h.
Experimental: as §2, §3
In data set [3] the test system is 9 tested cancer cell lines. Kind of data set: RRA cytotoxicity, whole panel of cancer cell lines. As to conditions: Homo sapiens, 72 h, read-out: IC50 against all the investigated cancer cell lines.
The subject of another data set is HCT116 p53^−/− cells. Kind of data set: RRA cytotoxicity, HCT116 p53^−/−. As to conditions: for IC50: Homo sapiens, HCT-116, 72 h; for Degree of resistance: IC50 HCT116 p53^−/− versus HCT116 p53^+/+.
Data set [4] concerns CEM/ADR5000 leukemia cells (P-gp-overexpressing). Kind of data set: RRA cytotoxicity, CEM/ADR5000. Particulars: for IC50: Homo sapiens, ADR5000, 72 h; for Degree of resistance: IC50 CEM/ADR5000 versus CCRF-CEM.
Text: These culture media were used as complete media with additional 10% fetal bovine serum and 1% penicillin/streptomycin (Invitrogen, Eggenstein, Germany).
The next data set deals with normal AML12 hepatocytes. The data set is described as follows: RRA cytotoxicity, normal AML12 hepatocytes. As to conditions: for Selectivity index: IC50 in AML12 versus IC50 in HepG2; for IC50: Mus musculus, AML12, 72 h.
The next data set deals with CCRF-CEM leukemia cells. The data set is described as follows: Resazurin reduction assay (RRA) cytotoxicity, CCRF-CEM. As to conditions: Homo sapiens, 72 h.
The subject of data set [5] is HCT116 p53^+/+ colon adenocarcinoma cells. Kind of data set: RRA cytotoxicity, HCT116 p53^+/+. Particulars: Homo sapiens, HCT-116, 72 h.
Experimental: as §2, §3
The subject of the next data set is U87MG glioblastoma cells. Kind of data set: RRA cytotoxicity, U87MG. As to conditions: Homo sapiens, U-87 MG, 72 h.
The test system of a further data set is U87MG.ΔEGFR cells. The data set is described as follows: RRA cytotoxicity, U87MG.ΔEGFR. As to conditions: for IC50: Homo sapiens, 72 h; for Degree of resistance: IC50 U87MG.ΔEGFR versus U87MG.
The subject of data set [6] is reactive oxygen species (ROS) production in CCRF-CEM cells. The data set is described as follows: ROS production, H2DCFH-DA staining and flow cytometry. Type of data set: cell-based, human. As to conditions: 24 h, 50 µM, untreated cells 0.6%. Here is the method: (§1) The treated cells (1 mL; 1 × 10^6 cells) were incubated for 24 h under the standard cell culture condition. Cells were further stained for 30 min with 10 µL of staining solution ([…] or H2DCFH-DA solution for ROS evaluation) according to the manufacturer’s protocol. Using the LSRFortessa FACS analyzer (Becton–Dickinson, Heidelberg, Germany), the amount of 1 × 10^4 cells was further measured as described earlier.

Data set [7] has as its system mitochondrial membrane potential (MMP) of CCRF-CEM cells. Kind of data set: MMP analysis, JC-1 staining and flow cytometry. Format: cell-based, human. As to conditions: 24 h. Here is the method:
as §1

Experimental for HCT116 p53^−/− cells: (§4) The sources of the HepG2 hepatocarcinoma [27], U87MG glioblastoma cells and its resistant epidermal growth factor receptor (EGFR) transfected subline, U87MG.ΔEGFR [28], HCT116 p53^+/+ colon adenocarcinoma cells and its resistant knock-out congener, HCT116 p53^−/− [29], MDA-MB-231-pcDNA3 breast adenocarcinoma cells and its multidrug-resistant breast cancer resistance protein (BCRP)-transfected MDA-MB-231-BCRP clone 23 subline [30] have also been described. […] These culture media were used as complete media with additional 10% fetal bovine serum and 1% penicillin/streptomycin (Invitrogen, Eggenstein, Germany).
as §3
Experimental for MDA-MB-231-BCRP cells: as §4, §3
Experimental for U87MG glioblastoma cells: as §2, §3
Experimental for U87MG.ΔEGFR cells: as §4, §3

Take `COc1ccc(-c2oc3cc(O)c(C)c(O)c3c(=O)c2OC)cc1O` [Compound 1, 6-C-methylquercetin-3, 4'-dimethyl ether]: the melting point was in the range of 195 to 197 °C. Besides, the half-maximal inhibitory concentration (IC50) in data set [1] was 11.3 ± 1.04 µM. In the data set with MDA-MB-231-BCRP cells, this compound yielded an IC50 of 17 ± 2.05 µM and a Degree of resistance of 1.51. Besides, the half-maximal inhibitory concentration (IC50) in [2] turned out to be 23.5 ± 0.59 µM. Moreover, the 50% inhibitory concentration (IC50) in data set [3] was under 50 µM. In the data set on HCT116 p53^−/− cells, this compound came in with an IC50 of 10.8 ± 1.11 µM and a Degree of resistance of 0.51. For the same compound, in data set [4], inhibition was half-maximal at 10.3 ± 0.44 µM (IC50) and the Degree of resistance worked out at 0.72. In the data set with normal AML12 hepatocytes, the Selectivity index was over 2.13 and the 50% inhibitory concentration (IC50) is over 50 µM. Moreover, in the data set with CCRF-CEM leukemia cells, half-maximal inhibition (IC50) required 14.2 ± 0.94 µM. For the same compound, the IC50 in data set [5] was determined as 21.2 ± 2.45 µM. The same compound showed an IC50 with U87MG glioblastoma cells of 27.2 ± 3.07 µM. Besides, in the data set on U87MG.ΔEGFR cells, half-maximal inhibition (IC50) was put at 26.6 ± 1.13 µM and the Degree of resistance came out at 0.98.
With `COc1cc2oc(-c3ccc(O)c(O)c3)c(OC)c(=O)c2c(O)c1C` [Compound 2, 6-C-methylquercetin-3,7-dimethyl ether], the melting point was in the range of 195 to 197 °C. For the same compound, half-maximal inhibition in data set [1] (IC50) required 9.84 ± 0.66 µM. For the same compound, in the data set on MDA-MB-231-BCRP cells, the IC50 is 14.3 ± 1.12 µM and the Degree of resistance amounted to 1.45. Besides, in data set [2], the half-maximal inhibitory concentration (IC50) was 19.6 ± 1.44 µM. Further, in the data set with HCT116 p53^−/− cells, half-maximal inhibition (IC50) was put at 9.2 ± 0.45 µM and the Degree of resistance was determined as 0.75. In addition, in [4], the 50% inhibitory concentration (IC50) is 9.11 ± 0.18 µM and the Degree of resistance is listed as 0.76. This compound also yielded a half-maximal inhibitory concentration (IC50) in the data set with normal AML12 hepatocytes of over 50 µM. Half-maximal inhibition with CCRF-CEM leukemia cells (IC50) was put at 12 ± 1.25 µM. The compound also displayed an IC50 in data set [5] of 12.3 ± 1.24 µM. Further, the IC50 in the data set on U87MG glioblastoma cells is 24.8 ± 2.22 µM. In the data set with U87MG.ΔEGFR cells, the half-inhibitory concentration (IC50) was determined as 21.1 ± 2.4 µM and the Degree of resistance is recorded as 0.85.
As to `COc1cc(-c2oc3cc(OC)c(C)c(O)c3c(=O)c2OC)ccc1O` [Compound 3, 6-C-methylquercetin 3,7,3'-trimethyl ether], the melting point was in the range of 185 to 187 °C. In [1], this compound registered an IC50 of 11 ± 0.58 µM. For the same compound, in the data set on MDA-MB-231-BCRP cells, 13.2 ± 1.48 µM corresponded to half-maximal inhibition (IC50) and the Degree of resistance is recorded as 1.20. In [2], this compound returned an IC50 of 23.6 ± 3.23 µM. Further, the IC50 in [3] is under 50 µM. Also, in the data set with HCT116 p53^−/− cells, the 50% inhibitory concentration (IC50) turned out to be 17.2 ± 0.83 µM and the Degree of resistance is on record as 0.87. In addition, in data set [4], it took 10.2 ± 0.3 µM to reach half-maximal inhibition (IC50) and the Degree of resistance was found to be 0.57. In the data set on normal AML12 hepatocytes, this compound gave a 50% inhibitory concentration (IC50) of over 50 µM. Also, the IC50 in the data set with CCRF-CEM leukemia cells came out at 17.9 ± 1.67 µM. For the same compound, the IC50 in data set [5] is 19.8 ± 0.78 µM. Besides, the half-maximal inhibitory concentration (IC50) in the data set with U87MG glioblastoma cells turned out to be 31 ± 2.65 µM. In the data set with U87MG.ΔEGFR cells, this compound yielded an IC50 of 19.8 ± 0.96 µM and a Degree of resistance of 0.64.
Consider `C[C@@H]1OC(Oc2c(-c3ccc(O)c(O)c3)oc3cc(O)cc(O)c3c2=O)[C@H](O)[C@H](O)[C@H]1O` (stereo partly drawn) [Compound 5, quercetin-3-O-L-rhamnopyranoside], for which the IC50 in [1] is 7.24 ± 0.47 µM; with MDA-MB-231-BCRP cells it was 16.8 ± 1.26 µM; in [2], 28.3 ± 1.74 µM; in the data set on HCT116 p53^−/− cells, 13.2 ± 1.14 µM; in data set [4], 7.21 ± 0.61 µM; in the data set with normal AML12 hepatocytes it was over 50 µM. Also, the concentration for half-maximal inhibition (IC50) with CCRF-CEM leukemia cells worked out at 8.73 ± 0.62 µM; in data set [5] it was 17.9 ± 1.26 µM; in the data set with U87MG glioblastoma cells it was 23.7 ± 1.77 µM; with U87MG.ΔEGFR cells, 31.1 ± 1.85 µM. In addition, the Degree of resistance in the data set with MDA-MB-231-BCRP cells was found to be 2.32; in the data set with HCT116 p53^−/− cells, 0.73; in data set [4], 0.83; in the data set with U87MG.ΔEGFR cells it was 1.31. Moreover, the Selectivity index in the data set with normal AML12 hepatocytes was over 1.77.
With `O=c1c(O[C@@H]2O[C@H](CO)[C@@H](O)[C@H](O)[C@H]2O)c(-c2ccc(O)c(O)c2)oc2cc(O)cc(O)c12` [Compound 6, quercetin-3-O-β-glucopyranoside], the IC50 was 6.99 ± 0.28 µM in data set [1]; 12.3 ± 0.97 µM in the data set with MDA-MB-231-BCRP cells; 21.5 ± 2.25 µM in data set [2]; 12.5 ± 1.36 µM in the data set on HCT116 p53^−/− cells; 7.88 ± 0.58 µM in data set [4]; over 50 µM with normal AML12 hepatocytes. The IC50 in the data set with CCRF-CEM leukemia cells turned out to be 9.12 ± 0.59 µM; in data set [5], 21.8 ± 2.11 µM; in the data set with U87MG glioblastoma cells, 19 ± 2.01 µM; with U87MG.ΔEGFR cells, 33.5 ± 2.79 µM. Besides, the Degree of resistance in the data set with MDA-MB-231-BCRP cells is on record as 1.76; in the data set with HCT116 p53^−/− cells, 0.57; in [4], 0.90; in the data set on U87MG.ΔEGFR cells it was 1.75. Further, in the data set on normal AML12 hepatocytes, the Selectivity index result is “above 2”.
`COc1c(C)c(O)c2c(=O)c(OC)c(-c3ccc(O)cc3)oc2c1C` [Compound 7, 6,8-C-dimethylkaempferol 3,7-dimethyl ether] registered a melting point of 285 to 287 °C. Moreover, the IC50 in data set [1] is 1.93 ± 0.19 µM. Also, in the data set with MDA-MB-231-BCRP cells, the IC50 is 8.15 ± 0.73 µM and the Degree of resistance was determined as 4.22. The midpoint of inhibition in [2], the IC50, lay at 30.7 ± 1.86 µM. In the data set with HCT116 p53^−/− cells, this compound returned an IC50 of 9.71 ± 0.76 µM and a Degree of resistance of 0.50. Also, in data set [4], the half-inhibitory concentration (IC50) is 2.86 ± 0.17 µM and the Degree of resistance is 0.43. In the data set on normal AML12 hepatocytes, this compound registered a Selectivity index of over 1.63 and a half-maximal inhibitory concentration (IC50) of over 50 µM. The same compound yielded an IC50 in the data set on CCRF-CEM leukemia cells of 6.61 ± 0.41 µM. In addition, in [5], the concentration for half-maximal inhibition (IC50) amounted to 19.5 ± 2.05 µM. This compound registered an IC50 in the data set on U87MG glioblastoma cells of 19.3 ± 1.62 µM. Further, in the data set on U87MG.ΔEGFR cells, the half-maximal inhibitory concentration (IC50) was 18 ± 2.21 µM and the Degree of resistance is on record as 0.93.
Consider `COc1cccc2c1C(=O)c1c(O)c3c(c(O)c1C2=O)C[C@@](O)(C(=O)CO)C[C@@H]3O[C@H]1C[C@H](N)[C@H](O)[C@H](C)O1` [Doxorubicin, doxorubicin, reference compound], for which the IC50 in data set [1] was 0.13 ± 0.01 µM; in the data set on MDA-MB-231-BCRP cells it was 0.79 ± 0.08 µM; in [2] it was 4.56 ± 0.48 µM; in the data set on HCT116 p53^−/− cells it was 1.78 ± 0.08 µM; in data set [4], 123 ± 10.9 µM; in the data set with normal AML12 hepatocytes, over 50 µM. Besides, the IC50 in the data set on CCRF-CEM leukemia cells was determined as 0.02 µM; in the data set with U87MG glioblastoma cells, 0.26 ± 0.03 µM; with U87MG.ΔEGFR cells, 0.98 ± 0.07 µM. Further, the Degree of resistance in the data set on MDA-MB-231-BCRP cells was 6.14; in the data set on HCT116 p53^−/− cells it was 3.73; in [4], 6,683.00; in the data set on U87MG.ΔEGFR cells, 3.79.
Regarding `OO` [H2O2, hydrogen peroxide, reference compound], in [6], the ROS level is 94.30%.
As to `CC(C)[C@@H]1NC(=O)[C@H](C)OC(=O)[C@@H](C(C)C)NC(=O)[C@@H](C(C)C)OC(=O)[C@H](C(C)C)NC(=O)[C@H](C)OC(=O)[C@@H](C(C)C)NC(=O)[C@@H](C(C)C)OC(=O)[C@H](C(C)C)NC(=O)[C@H](C)OC(=O)[C@@H](C(C)C)NC(=O)[C@@H](C(C)C)OC1=O` [Valinomycin, valinomycin, reference compound], the “Effect on the integrity of the MMP” value in data set [7] was “strongly altered the integrity of the MMP”. For the same compound, the “Q1, cells with undamaged (intact) MMP” value in [7] (positive control, picture: at 25 (no unit), text: 2 × IC50) is 38.6%.

These data come from publication PMC10523748, “Cytotoxicity, acute and sub-chronic toxicities of the leaves of Bauhinia thonningii (Schumach.) Milne-Redh. (Caesalpiniaceae)” (BMC Complementary Medicine and Therapies, 2023).
